The numbers were not newly measured in patent US8247348B1, “Method of preserving cut plant material” (priority 2007, dated 2012), which cites them from elsewhere.

On to `OCCO` [Ethylene glycol], for which the “amount that can be lethal” value in the data set with humans (adults, as little as (2 tablespoons)) is listed as 30 milliliters. Also, the “estimated LD100” value in the data set with humans (in humans) is “approximately 1.4 ml/kg”.
For `O=C([O-])c1ccccc1.[Na+]` [Sodium benzoate], in the data set with fungi, the “type of antifungal action” value is “fungistatic not fungicidal”. In addition, in the data set on fungi (effective only in acidic conditions), the “pH at which effective” value is less than 4.5.
